Assay results taken from patent US11399455B1, “Cast pellets for planting seeds” (Ball Horticultural Company, priority 2010, dated 2022).

Legend:
[1] = tested on: Impatiens Dazzler White seeds; experiment: Growth regulator in casting: germination and plant height; assay type: in vivo; details: count date 11; for Germ (%): 25° C.
Procedure: (§1) A single seed was placed in every mold cavity of a mold containing 108 cavities of dimensions 0.25 inch (6.4 mm) in length by 0.125 inch (3.2 mm) in width and 0.125 inch (3.2 mm) in depth. The following growth regulator concentrations were applied to seed via the casting method: 2 ppm, 4 ppm, and 8 ppm. PEG 4000 (100 g) was weighed out and put into a beaker. This was done four times. Each beaker with the PEG 4000 was heated to 111° F. until the PEG 4000 completely melted. The growth regulator concentrations were made by dissolving a given weight of the plant grown retardant ancymidol (α-cyclopropyl-α-(p-methoxyphenyl)-5-pyrimidinemethanol; A-REST) powder into 1 ml of acetone, as follows: 6.4 mg A-REST into 1 ml of acetone for 2 ppm; 12.8 mg A-REST into 1 ml of acetone for 4 ppm; and 25.6 mg A-REST into 1 ml acetone for 8 ppm. Once dissolved, the specified concentrations of A-REST were added to the beakers with the melted PEG and mixed on the heated stir plate until well blended; 65 μl was pipetted into the cavities that contained the seeds. Once the entire mold was filled it was set aside to cool. […] The castings were then removed from the mold.
(§2) The 108 castings (seed plus PEG 4000) containing the A-REST concentrations, along with a cast only (no added A-REST) and a raw control, were sown in a plug tray to evaluate germination. Seeds were sown at 25° C. The plug trays were run through a watering tunnel and then put into a Stage 1 mist chamber. Upon radical emergence, the plugs were placed in a Stage 2 chamber. The amount of time in Stage 1 and Stage 2 was dependent on the crop.
(§3) Plant height was measured and recorded on the same day seed germination was recorded.

[2] = tested on: Marigolds African Marvel Orange seeds; experiment: as above; assay type: in vivo; details: count date 10; for Germ (%): 25° C.
Procedure: as §1, §2, §3

`COc1ccc(C(O)(c2cncnc2)C2CC2)cc1` (stereo not drawn) [A-REST, α-cyclopropyl-α-(p-methoxyphenyl)-5-pyrimidinemethanol] was tested, and the “Germ (%)” value ([1]; 2 ppm in PEG 4000 casting) was 96%, the “Ave. Height (mm)” value ([1]; 2 ppm in PEG 4000 casting) was 13 mm and the “Germ (%)” value ([1]; 4 ppm in PEG 4000 casting) was 94%. For the same compound, the “Ave. Height (mm)” value ([1]; 4 ppm in PEG 4000 casting) was 11 mm, the “Germ (%)” value ([1]; 8 ppm in PEG 4000 casting) was 99% and the “Ave. Height (mm)” value ([1]; 8 ppm in PEG 4000 casting) was 9 mm. The “Germ (%)” value ([2]; 2 ppm in PEG 4000 casting) was 98%, the “Ave. Height (mm)” value ([2]; 2 ppm in PEG 4000 casting) was 12 mm and the “Germ (%)” value ([2]; 4 ppm in PEG 4000 casting) was 87%. The “Ave. Height (mm)” value ([2]; 4 ppm in PEG 4000 casting) was 12 mm, the “Germ (%)” value ([2]; 8 ppm in PEG 4000 casting) was 82% and the “Ave. Height (mm)” value ([2]; 8 ppm in PEG 4000 casting) was 12 mm.
